# Measurements: patent publication US20100004301A1, “Benzoxazoles Useful in the Treatment of Inflammation” (priority 2006, published 2010)
# Biological target: T1, mPGES-1 (Homo sapiens, UniProt O14684)
# T1 construct: made in house; host or cells: E. coli
# T1 sequence (O14684 1-152): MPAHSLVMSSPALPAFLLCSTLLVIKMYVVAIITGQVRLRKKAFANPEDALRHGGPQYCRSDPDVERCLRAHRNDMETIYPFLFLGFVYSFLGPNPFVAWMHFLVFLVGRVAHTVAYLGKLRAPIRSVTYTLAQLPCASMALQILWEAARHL
# Experiment: mPGES-1 enzyme assay (conversion of PGH2 to PGE2, HPLC analysis)
# Type: biochemical
# Settings: mPGES-1 expressed in E. coli, membrane fraction; 25 min preincubation, 60 s PGH2 reaction, room temperature
# Protocol: In the assay mPGES-1 catalyzes the reaction where the substrate PGH2 is converted to PGE2. mPGES-1 is expressed in E. coli and the membrane fraction is dissolved in 20 mM NaPi-buffer pH 8.0 and stored at −80° C. In the assay mPGES-1 is dissolved in 0.1M KPi-buffer pH 7.35 with 2.5 mM glutathione. The stop solution consists of H2O/MeCN (7/3), containing FeCl2 (25 mM) and HCl (0.15 M). The assay is performed at room temperature in 96-well plates. Analysis of the amount of PGE2 is performed with reversed phase HPLC (Waters 2795 equipped with a 3.9×150 mm C18 column). The mobile phase consists of H2O/MeCN (7/3), containing TFA (0.056%), and absorbance is measured at 195 nm with a Waters 2487 UV-detector.
# The following is added chronologically to each well: • 1. 100 μL mPGES-1 in KPi-buffer with glutathione. Total protein concentration: 0.02 mg/mL. • 2. 1 μL inhibitor in DMSO. Incubation of the plate at room temperature for 25 minutes. • 3. 4 μL of a 0.25 mM PGH2 solution. Incubation of the plate at room temperature for 60 seconds. • 4. 100 μL stop solution. • 180 μL per sample is analyzed with HPLC.
row,SMILES,IC50 [nM]
1,"CC(C)Oc1ccc(-c2ccc3oc(-c4cc(NS(=O)(=O)c5cc(Cl)ccc5Cl)ccc4Cl)nc3c2)cc1 [Example 4, 2,5-Dichloro-N-{4-chloro-3-[5-(4-isopropoxyphenyl)benzoxazol-2-yl]phenyl}benzenesulfonamide]",600
2,"Cc1cc(C)cc(-c2cc(-c3nc4cc(C)ccc4o3)cc(NC(=O)c3ccccc3C(F)(F)F)c2N)c1 [Example 5, N-[2-Amino-3′,5′-dimethyl-5-(5-methylbenzoxazol-2-yl)biphenyl-3-yl]-2-trifluoromethylbenzamide]",130
3,"CC(C)(C)c1ccc2oc(-c3cc(COc4cccc(Cl)c4)cc(NC(=O)c4ccccc4C(F)(F)F)c3)nc2c1 [Example 7, N-[3-(5-tert-Butylbenzoxazol-2-yl)-5-(3-chlorophenoxymethyl)phenyl]-2-trifluoromethylbenzamide]",270
